{
  "source": "patent US20160279190A1",
  "about": "“MODULATION OF AXON DEGENERATION” (GENENTECH, INC., priority 2008, published 2016)",
  "key": {"CaMKK": {"test_system": "CaMKK", "conditions": "CaMKK activity after ionomycin stimulation, transfected HeLa cells; published source (footnote e, cell marked c); read-out: Cellular IC50; cited from earlier work"}, "DRGs": {"test_system": "DRGs", "assay": "Campenot chamber local axon degeneration, anti-NGF in axon compartment", "format": "cell-based, mouse", "conditions": "inhibitor 15 μM; anti-NGF in axon compartment, 28 hours", "experimental": "Teflon dividers (Tyler Research) were cleaned by washing in water and wiping them clean of any residual grease. Dividers were then soaked in Nochromix (Godax Laboratories)/sulfuric acid overnight, rinsed five times in distilled and autoclaved water (SQ water), boiled for 30 minutes, and then air-dried before use.\nMouse laminin (5 μg/ml in sterile filtered water; Invitrogen) was added to PDL coated 35 mm dishes (BD Biosciences) and they were incubated for 1 hour at 37° C., followed by two rinses in SQ water. The dishes were vacuum-dried and then air-dried in a laminar flow hood for 15 minutes. Prepared dishes were then scored with a pin rake (Tyler Research). […] High vacuum grease (VWR) was added to each Teflon divider under a dissection scope. The laminin coated PDL dishes were inverted and dropped onto the Teflon divider, with additional pressure added by use of a toothpick in the non-track-containing regions. Dishes were incubated for 1 hour at 37° C. Five hundred microliters of NBM+MC (50 ng/ml NGF) solution was added to each of the side compartments, and a grease barrier was added in front of the center cell slot.\nFree E13.5 spinal cords were dissected from mouse embryos and placed into NBM+MC (25 ng/ml NGF) solution. DRGs were detached from the spinal cord with a tungsten needle. An NBM+MC-lubricated P200 pipette was used to move DRGs into a 1.5 ml tube. DRGs were pelleted with a tabletop centrifuge for 30 seconds. The supernate was discarded and 0.05% Trypsin/EDTA (cold) was added. The pellet was resolubilized with a pipette and incubated at 37° C. for 15 minutes with constant agitation (650 RPM). The sample was again centrifuged and the supernate discarded. The pellet was resuspended in warm NBM+MC (50 ng/ml NGF) solution and triturated with a flamed glass pipette 20 times, followed by trituration with a fire-bored glass pipette another 20 times. The samples were again centrifuged and the resulting pellets were resuspended in 0.5 ml NBM+MC (50 ng/ml NGF) solution. The cells were diluted to a final concentration of 2.5×10^6 cells/ml. The cell suspensions were loaded into a 1 ml syringe with a 22 gauge needle. The center slot of the Campenot divider was filled using the syringe (to a volume of at least 50 μl). The Campenot chamber was incubated overnight at 37° C. 2.5 ml NGF+MC (50 ng/ml NGF) solution was added to the center compartment and the grease gate was removed. The outer medium (cell body compartment) was replaced after three days with 2.5 ml NBM+MC medium (with 25 ng/ml NGF). After five days in culture, one distal compartment was washed three times with warmed NBM+MC (no NGF) solution. After the third wash, 500 μl NBM+MC (no NGF) solution was added to the axon compartment in combination with either 0.5% DMSO or an inhibitor. The cell body compartment was replaced with 2.5 ml NBM+MC medium (with 25 ng/ml NGF) containing either 0.5% DMSO or inhibitor.\nAfter 28 hours of anti-NGF antibody treatment, 8% PFA/30% sucrose solution (see above) was added directly to the culture medium at a 1:1 dilution and incubated for 30 minutes. The Teflon divider was removed after the first 15 minutes of addition. The system was washed once with 2.5 ml PBS prior to immunostaining. Neurons were blocked in 5% BSA/0.2% triton in PBS for 30 minutes. The primary antibody Tuj1 (Covance) was added to a final dilution of 1:1000 in PBS containing 2% BSA and incubated overnight at 4° C. The dish was washed once with PBS. […] The dish was washed twice with PBS, and a 22×22 mm coverslip (VWR) was added with 350 μl of fluoromount G (Electron Microscopy Sciences). The neurons were visualized by use of a fluorescence microscope.\nAs described above, E13.5 DRGs were isolated and grown for 5 days in a Campenot chamber."}, "[1]": {"test_system": "cerebellar granule neurons (CGNs)", "assay": "serum deprivation/KCl reduction-induced degeneration", "format": "cell-based, mouse", "conditions": "inhibitor 5 μM; 5 mM KCl, 24 hours", "experimental": "Kinase inhibitors (inhibitors of GSK3, JNK, EGFR, p38, and CaMKK) were tested for their capacity to protect cultured cerebellar granule neurons (CGNs) following serum deprivation/KCl reduction. Briefly, CGNs isolated from P7 mouse brain were cultured on PDL- and laminin-coated 96-well tissue culture dishes in medium containing serum and potassium (Basal Medium Eagles including 29 mM KCl and 10% FBS) at 37° C. After 24 hours in culture, cells were switched to “deprivation” medium (Basal Medium Eagles including 5 mM KCl), alone or in combination with various small molecule inhibitors as shown in Table 8. After a further 24 hours in culture, the neurons were fixed with 4% paraformaldehyde and stained with a neuronal marker (anti-class III β-Tubulin, Covance). Image acquisition was performed using the ImageXpress automated imaging system (Molecular Devices)."}},
  "data": [
    {"smiles": "O=C(O)c1ccc2c3c1cccc3c(=O)n1c3ccccc3nc21", "note": "[STO-609]", "values": [
      {"measurement": "IC50", "setting": "CaMKK", "value": 3000, "unit": "nM"},
      {"measurement": "Axon Compartment (axon protected when inhibitor is in axon compartment)", "setting": "DRGs", "value": "Yes (1)"},
      {"measurement": "Cell Body Compartment (axon protected when inhibitor is in cell body compartment)", "setting": "DRGs", "value": "No (1)"},
      {"measurement": "protection of cerebellar granule neurons from serum deprivation/KCl reduction", "setting": "[1]", "value": "protect cerebellar granule neurons from serum deprivation/KCl reduction"}
    ]}
  ]
}
